Test results from patent US20230339997A1, “CLASS OF PLATINUM COMPOUNDS FOR TREATING CANCER, AND METHOD FOR PREPARATION THEREOF” (SHANGHAI HAIJU BIOLOGICAL TECHNOLOGY CO., LTD., priority 2020, published 2023).
Converted amounts (≈) assume the structure as drawn. “Also recorded” adds a separate entry of the source.

Tests used:
S180 sarcoma = assay: In vivo tumor inhibition experiment, transplanted tumor S180 in mice; design: species or system Kunming mice; conditions: for Tumor inhibition rate % / Tumor weight (g) X ± SD: S180 sarcoma mice, dl, 4, killed on eighth day
Description: In Vivo Tumor Inhibition Experiment of Example
The inhibitory effects of example S47 and example S70 of the present disclosure on animal transplanted tumor S180 were tested.
Kunming mice, ♀, 22±1 g, were purchased from Shanghai Slac Laboratory Animal Co., Ltd. Certificate number: SCXK (Shanghai) 2013-0010-02. Feeding environment: SPF level. Example S47, example S70 and carboplatin, a positive control drug, were prepared with 5% glucose to the required concentration. Mice were subcutaneously inoculated with S180 sarcoma cells, and the drug administration was started on the next day of inoculation. The mice were killed on the eighth day, and the tumor was weighed and the tumor inhibition rate was calculated.
Tumor inhibition rate=(tumor weight in the control group−tumor weight in the treatment group)/tumor weight in the control group×100

[1] = In vitro water solubility experiment; conditions: for solubility at 30 min / solubility: 25 °C, water, thermodynamic from solid; for improvement of water solubility compared with carboplatin: compared with the marketed drug carboplatin
Description: In Vitro Water Solubility Experiment of Example
At room temperature of 25° C., the test sample that had been ground into a fine powder was weighed accurately, and shaken vigorously for 30 seconds every 5 minutes in a certain volume of distilled water; and the dissolution of each test sample was observed within 30 minutes. If no visible solute particles were visible, the sample was considered to be completely dissolved.

[2] = background, studies have shown; cited from earlier work

Structure (SMILES): CC(=O)N[C@@H](CCCNC(=N)N)C(=O)NCC(=O)N[C@@H](CC(=O)O)C(=O)NCCSC1CC(=O)N(CCCCCC(=O)NN=C2CC3(C2)C(=O)[O][Pt]([NH2])([NH2])[O]C3=O)C1=O (stereo partly drawn) [Example S70]
- Tumor inhibition rate % (S180 sarcoma; dose 80, Ip): 52.3%
- Tumor weight (g) X ± SD (S180 sarcoma; dose 80, Ip): 0.92 ± 0.20 g
- Tumor inhibition rate % (S180 sarcoma; dose 160, Ip): 70.8%
- Tumor weight (g) X ± SD (S180 sarcoma; dose 160, Ip): 0.56 ± 0.17 g
- Tumor inhibition rate % (S180 sarcoma; dose 240, Ip): 84.6%
- Tumor weight (g) X ± SD (S180 sarcoma; dose 240, Ip): 0.30 ± 0.14 g
- inhibitory effect on growth of S180 sarcoma of mice (in words) (S180 sarcoma; compared with carboplatin at equimolar concentrations): more obvious ability to inhibit the growth of transplanted tumor S180 than the clinical drug carboplatin; also recorded: significantly better than carboplatin

Structure (SMILES): N=C(N)NCCC[C@@H]1NC(=O)[C@@H](CCCCNC(=O)CCOCCOCCOCCOCCNC(=O)CC[C@H](NC(=O)CCSC2CC(=O)N(CCCCCC(=O)NN=C3CC4(C3)C(=O)[O][Pt]([NH2])([NH2])[O]C4=O)C2=O)C(=O)NCCOCCOCCOCCOCCC(=O)NCCCC[C@H]2NC(=O)[C@@H](Cc3ccccc3)NC(=O)[C@H](CC(=O)O)NC(=O)CNC(=O)[C@H](CCCNC(=N)N)NC2=O)NC(=O)[C@@H](Cc2ccccc2)NC(=O)[C@H](CC(=O)O)NC(=O)CNC1=O (stereo partly drawn) [Example S72]
- solubility at 30 min [1]: > 30 mg/mL
- improvement of water solubility compared with carboplatin [1]: ~1 fold

Structure (SMILES): N=C(N)NCCC[C@@H]1NC(=O)[C@@H](CCCCNC(=O)CCOCCOCCOCCOCCNC(=O)CC[C@H](NC(=O)CCSC2CC(=O)N(CCOCCOCCC(=O)NN=C3CC4(C3)C(=O)[O][Pt]([NH2])([NH2])[O]C4=O)C2=O)C(=O)NCCOCCOCCOCCOCCC(=O)NCCCC[C@H]2NC(=O)[C@@H](Cc3ccccc3)NC(=O)[C@H](CC(=O)O)NC(=O)CNC(=O)[C@H](CCCNC(=N)N)NC2=O)NC(=O)[C@@H](Cc2ccccc2)NC(=O)[C@H](CC(=O)O)NC(=O)CNC1=O (stereo partly drawn) [Example S80]
- solubility at 30 min [1]: > 30 mg/mL
- improvement of water solubility compared with carboplatin [1]: ~1 fold

Structure (SMILES): N=C(N)NCCC[C@@H]1NC(=O)[C@@H](CCCCNC(=O)CCOCCOCCOCCOCCNC(=O)CC[C@H](NC(=O)CCSC2CC(=O)N(CC3CCC(C(=O)NN=C4CC(C(=O)O)(C(=O)O)C4)CC3)C2=O)C(=O)NCCOCCOCCOCCOCCC(=O)NCCCC[C@H]2NC(=O)[C@@H](Cc3ccccc3)NC(=O)[C@H](CC(=O)O)NC(=O)CNC(=O)[C@H](CCCNC(=N)N)NC2=O)NC(=O)[C@@H](Cc2ccccc2)NC(=O)[C@H](CC(=O)O)NC(=O)CNC1=O (stereo partly drawn) [Example S95]
- solubility [1]: > 30 mg/mL

Structure (SMILES): N=C(N)NCCC[C@@H]1NC(=O)[C@@H](CCCCNC(=O)CCOCCOCCOCCOCCNC(=O)CC[C@H](NC(=O)CCSCC2=CCC(=O)N2CC2CCC(C(=O)NN=C3CC(C(=O)O)(C(=O)O)C3)CC2)C(=O)NCCOCCOCCOCCOCCC(=O)NCCCC[C@H]2NC(=O)[C@@H](Cc3ccccc3)NC(=O)[C@H](CC(=O)O)NC(=O)CNC(=O)[C@H](CCCNC(=N)N)NC2=O)NC(=O)[C@@H](Cc2ccccc2)NC(=O)[C@H](CC(=O)O)NC(=O)CNC1=O (stereo partly drawn) [Example S97]
- solubility [1]: 30 mg/mL (≈ 13.1 mM)

Structure (SMILES): [NH2][Pt]1([NH2])[O]C(=O)C2(CCC2)C(=O)[O]1 [carboplatin, reference compound]
- water solubility [2]: 17.0 mg/mL
- solubility at 30 min [1]: 16.6 mg/mL
